Source: patent US20080103205A1, “Pesticidal compositions and methods of use” (priority 2006, published 2008)

Tests used:
[1] = system: European corn borer (Ostrinia nubilalis); assay: Diet surface test on European corn borer larvae (2nd instar); type: in vivo; details: for No. dead: 10 larvae
Method: Concentrations of 6.25, 12.5, 25, or 50 ppm AT blocker were prepared in 95% ethyl alcohol (EtOH). 95% EtOH alone served as control. European corn borer (ECB) diet prepared from the powdered diet supplied by French Agricultural Research, Inc. Diet (1-2 ml) was poured into small cups and allowed to cool to room temperature. Test solution (100 ul) was placed onto the diet surface and allowed to evaporate the solvent. Each concentration of chemical had 2 sets of 10 cups each. One late 2nd instar larva was placed in each cup and covered with lid having perforations for aeration. Cups were placed in an incubator for 7 days at 25±1° C. and 70±5% RH. After seven days, the weight of each larva was taken and any mortality was recorded. Then, the surviving larvae were transferred to fresh diet cups holding sufficient diet (5-6 ml) without chemicals and incubated at 25±1° C. and 70±5% RH until pupation. Weights of larvae were taken 14 days after transferring to fresh diet (21 days after start of treatment). Finally, the number of days until pupation was recorded.
Anion transporters caused larval death and a reduction in weight gain within 7 days exposure. The effect persisted for 2 weeks time on untreated diet, but total time to pupation was relatively unaffected.

[2] = system: Meloidogyne incognita eggs; assay: M. incognita egg hatching; type: in vivo
Method: Meloidogyne incognita (plant parasitic nematode) eggs were collected from tomato plant roots and were suspended in water. The solution was either diluted or concentrated to adjust the egg load to about 5000/ml. AT stock solutions prepared in DMSO and 300 ul of test solution was placed in a well, along with 20 ul of aqueous solution containing eggs. The number of eggs in 20 ul solution ranged from 115 to 143 (n=10). Each treatment (2, 5, 10, 20, or 40 ppm) was replicated 5 times. Microplates were sealed with Parafilm™ and incubated at room temperature. Similar tests conducted with 0.2% DMSO alone served as controls. Egg hatching was monitored at 24, 72, 120, and 168 hr after incubation. Both moving and non-moving nematodes were counted to arrive at the number of eggs hatched. Proportion of egg hatch was calculated as the number of juveniles divided by total number of eggs.
VSCC blockers effect on M. incognita egg hatching is shown in the following tables where % hatched is rounded to the nearest percentage point and where “% C*” is % hatch, normalized to control.

O=C(O)c1cc([N+](=O)[O-])ccc1NCCCc1ccccc1 [NPPB, 5-Nitro-2-(3-phenylpropylamino)benzoic acid]
No. dead ([1]; 6.25 ppm, 7 days after feeding): 0
No. dead ([1]; 6.25 ppm, 21 days after feeding): 0
No. dead ([1]; 12.5 ppm, 7 days after feeding): 0
No. dead ([1]; 12.5 ppm, 21 days after feeding): 0
No. dead ([1]; 25 ppm, 21 days after feeding): 2
Days for pupation ([1]; 50 ppm): 0 days
No. dead ([1]; 50 ppm, 7 days after feeding): 8
% wt reduction to control ([1]; 50 ppm, 21 days after feeding): 0%
Mean wt of survived larvae, mg ([1]; 50 ppm, 21 days after feeding): 0 mg
No. dead ([1]; 50 ppm, 21 days after feeding): 10
mortality at 6.25 ppm ([1]; Ostrinia nubilalis, 168 h, 6.25 ppm, 7 days after feeding): 0%
mortality at 12.5 ppm ([1]; Ostrinia nubilalis, 168 h, 12.5 ppm, 7 days after feeding): 0%
mortality at 50 ppm ([1]; Ostrinia nubilalis, 168 h, 50 ppm, 7 days after feeding): 80%
mortality at 6.25 ppm ([1]; Ostrinia nubilalis, 504 h, 6.25 ppm, 21 days after feeding): 0%
mortality at 12.5 ppm ([1]; Ostrinia nubilalis, 504 h, 12.5 ppm, 21 days after feeding): 0%
mortality at 25 ppm ([1]; Ostrinia nubilalis, 504 h, 25 ppm, 21 days after feeding): 20%
mortality at 50 ppm ([1]; Ostrinia nubilalis, 504 h, 50 ppm, 21 days after feeding): 100%
Eggs Hatched % ([2]; 2 ppm, 24 hr): 10%
Eggs Hatched % C* (% hatch, normalized to control) ([2]; 2 ppm, 24 hr): 100%
Eggs Hatched No. ([2]; 2 ppm, 24 hr): 61
Eggs Hatched % ([2]; 2 ppm, 72 hr): 14%
Eggs Hatched % C* (% hatch, normalized to control) ([2]; 2 ppm, 72 hr): 87%
Eggs Hatched No. ([2]; 2 ppm, 72 hr): 92
Eggs Hatched % ([2]; 2 ppm, 120 hr): 19%
Eggs Hatched % C* (% hatch, normalized to control) ([2]; 2 ppm, 120 hr): 86%
Eggs Hatched No. ([2]; 2 ppm, 120 hr): 127
Eggs Hatched % ([2]; 2 ppm, 168 hr): 23%
Eggs Hatched % C* (% hatch, normalized to control) ([2]; 2 ppm, 168 hr): 83%
Eggs Hatched No. ([2]; 2 ppm, 168 hr): 155
Eggs Hatched % ([2]; 5 ppm, 24 hr): 10%
Eggs Hatched % C* (% hatch, normalized to control) ([2]; 5 ppm, 24 hr): 100%
Eggs Hatched No. ([2]; 5 ppm, 24 hr): 58
Eggs Hatched % ([2]; 5 ppm, 72 hr): 14%
Eggs Hatched % C* (% hatch, normalized to control) ([2]; 5 ppm, 72 hr): 87%
Eggs Hatched No. ([2]; 5 ppm, 72 hr): 86
Eggs Hatched % ([2]; 5 ppm, 120 hr): 18%
Eggs Hatched % C* (% hatch, normalized to control) ([2]; 5 ppm, 120 hr): 82%
Eggs Hatched No. ([2]; 5 ppm, 120 hr): 118
Eggs Hatched % ([2]; 5 ppm, 168 hr): 22%
Eggs Hatched % C* (% hatch, normalized to control) ([2]; 5 ppm, 168 hr): 79%
Eggs Hatched No. ([2]; 5 ppm, 168 hr): 149
Eggs Hatched % ([2]; 10 ppm, 24 hr): 9%
Eggs Hatched % C* (% hatch, normalized to control) ([2]; 10 ppm, 24 hr): 90%
Eggs Hatched No. ([2]; 10 ppm, 24 hr): 58
Eggs Hatched % ([2]; 10 ppm, 72 hr): 12%
Eggs Hatched % C* (% hatch, normalized to control) ([2]; 10 ppm, 72 hr): 75%
Eggs Hatched No. ([2]; 10 ppm, 72 hr): 82
Eggs Hatched % ([2]; 10 ppm, 120 hr): 16%
Eggs Hatched % C* (% hatch, normalized to control) ([2]; 10 ppm, 120 hr): 72%
Eggs Hatched No. ([2]; 10 ppm, 120 hr): 105
Eggs Hatched % ([2]; 10 ppm, 168 hr): 20%
Eggs Hatched % C* (% hatch, normalized to control) ([2]; 10 ppm, 168 hr): 71%
Eggs Hatched No. ([2]; 10 ppm, 168 hr): 129
Eggs Hatched % ([2]; 20 ppm, 24 hr): 9%
Eggs Hatched % C* (% hatch, normalized to control) ([2]; 20 ppm, 24 hr): 90%
Eggs Hatched No. ([2]; 20 ppm, 24 hr): 52
Eggs Hatched % ([2]; 20 ppm, 72 hr): 11%
Eggs Hatched % C* (% hatch, normalized to control) ([2]; 20 ppm, 72 hr): 69%
Eggs Hatched No. ([2]; 20 ppm, 72 hr): 67
Eggs Hatched % ([2]; 20 ppm, 120 hr): 14%
Eggs Hatched % C* (% hatch, normalized to control) ([2]; 20 ppm, 120 hr): 64%
Eggs Hatched No. ([2]; 20 ppm, 120 hr): 85
Eggs Hatched % ([2]; 20 ppm, 168 hr): 17%
Eggs Hatched % C* (% hatch, normalized to control) ([2]; 20 ppm, 168 hr): 61%
Eggs Hatched No. ([2]; 20 ppm, 168 hr): 106
Eggs Hatched % ([2]; 40 ppm, 24 hr): 8%
Eggs Hatched % C* (% hatch, normalized to control) ([2]; 40 ppm, 24 hr): 80%
Eggs Hatched No. ([2]; 40 ppm, 24 hr): 47
Eggs Hatched % ([2]; 40 ppm, 72 hr): 11%
Eggs Hatched % C* (% hatch, normalized to control) ([2]; 40 ppm, 72 hr): 69%
Eggs Hatched No. ([2]; 40 ppm, 72 hr): 61
Eggs Hatched % ([2]; 40 ppm, 120 hr): 11%
Eggs Hatched % C* (% hatch, normalized to control) ([2]; 40 ppm, 120 hr): 50%
Eggs Hatched No. ([2]; 40 ppm, 120 hr): 74
Eggs Hatched % ([2]; 40 ppm, 168 hr): 12%
Eggs Hatched % C* (% hatch, normalized to control) ([2]; 40 ppm, 168 hr): 43%
Eggs Hatched No. ([2]; 40 ppm, 168 hr): 82
